Data taken from patent US11634404B2 (priority 2016, dated 2023).
Like-named read-outs stand apart in the source and are kept apart here.

What was measured:
Type in all cases: cell-based
panel of 168 GPCRs [1] = biological target: panel of 168 GPCRs (Homo sapiens, UniProt Q03431); settings: GPCR PTHR1; agonist, 10 μM
panel of 168 GPCRs [2] = biological target: panel of 168 GPCRs (Homo sapiens, UniProt P08912); settings: GPCR CHRM5; agonist, 10 μM
panel of 168 GPCRs [3] = biological target: panel of 168 GPCRs (Homo sapiens, UniProt P34972); settings: GPCR CNR2; agonist, 10 μM
panel of 168 GPCRs [4] = biological target: panel of 168 GPCRs (Homo sapiens, UniProt P32238); settings: GPCR CCKAR; agonist, 10 μM
panel of 168 GPCRs [5] = biological target: panel of 168 GPCRs (Homo sapiens, UniProt P08588); settings: GPCR ADRB1; agonist, 10 μM
panel of 168 GPCRs [6] = biological target: panel of 168 GPCRs (Homo sapiens, UniProt O14842); settings: GPCR FFAR1; agonist, 10 μM
panel of 168 GPCRs [7] = biological target: panel of 168 GPCRs (Homo sapiens, UniProt Q13324); settings: GPCR CRHR2; agonist, 10 μM
panel of 168 GPCRs [8] = biological target: panel of 168 GPCRs (Homo sapiens, UniProt P30988); settings: agonist, 10 μM
panel of 168 GPCRs [9] = biological target: panel of 168 GPCRs (Homo sapiens, UniProt P43116); settings: GPCR PTGER2; agonist, 10 μM
panel of 168 GPCRs [10] = biological target: panel of 168 GPCRs (Homo sapiens, UniProt Q9H244); settings: GPCR P2RY12; agonist, 10 μM
panel of 168 GPCRs [11] = biological target: panel of 168 GPCRs (Homo sapiens, UniProt Q9H3N8); settings: GPCR HRH4; agonist, 10 μM
panel of 168 GPCRs [12] = biological target: panel of 168 GPCRs (Homo sapiens, UniProt P25025); settings: GPCR CXCR2; agonist, 10 μM
panel of 168 GPCRs [13] = biological target: panel of 168 GPCRs (Homo sapiens, UniProt Q5NUL3); settings: GPCR GPR120; agonist, 10 μM
panel of 168 GPCRs [14] = biological target: panel of 168 GPCRs (Homo sapiens, UniProt Q01726); settings: GPCR MC1R; agonist, 10 μM
panel of 168 GPCRs [15] = biological target: panel of 168 GPCRs (Homo sapiens, UniProt O43613); settings: GPCR HCRTR1; agonist, 10 μM
panel of 168 GPCRs [16] = biological target: panel of 168 GPCRs (Homo sapiens, UniProt Q9GZQ6); settings: GPCR NPFFR1; agonist, 10 μM
panel of 168 GPCRs [17] = biological target: panel of 168 GPCRs (Homo sapiens, UniProt P30872); settings: GPCR SSTR1; agonist, 10 μM
panel of 168 GPCRs [18] = biological target: panel of 168 GPCRs (Homo sapiens, UniProt P61073); settings: GPCR CXCR4; agonist, 10 μM
panel of 168 GPCRs [19] = biological target: panel of 168 GPCRs (Homo sapiens, UniProt O95838); settings: GPCR GLP2R; agonist, 10 μM
panel of 168 GPCRs [20] = biological target: panel of 168 GPCRs (Homo sapiens, UniProt P14416); settings: GPCR DRD2L; agonist, 10 μM
panel of 168 GPCRs [21] = biological target: panel of 168 GPCRs (Homo sapiens, UniProt Q96LB2); settings: GPCR MRGPRX1; agonist, 10 μM
panel of 168 GPCRs [22] = biological target: panel of 168 GPCRs (Homo sapiens, UniProt P35367); settings: GPCR HRH1; agonist, 10 μM
panel of 168 GPCRs [23] = biological target: panel of 168 GPCRs (Homo sapiens, UniProt P30518); settings: GPCR AVPR2; agonist, 10 μM
panel of 168 GPCRs [24] = biological target: panel of 168 GPCRs (Homo sapiens, UniProt P25101); settings: GPCR EDNRA; agonist, 10 μM
panel of 168 GPCRs [25] = biological target: panel of 168 GPCRs (Homo sapiens, UniProt Q8TDV5); settings: GPCR GPR119; agonist, 10 μM
panel of 168 GPCRs [26] = biological target: panel of 168 GPCRs (Homo sapiens, UniProt P21728); settings: GPCR DRD1; agonist, 10 μM
panel of 168 GPCRs [27] = biological target: panel of 168 GPCRs (Homo sapiens, UniProt P30874); settings: GPCR SSTR2; agonist, 10 μM
panel of 168 GPCRs [28] = biological target: panel of 168 GPCRs (Homo sapiens, UniProt P46663); settings: GPCR BDKRB1; agonist, 10 μM
panel of 168 GPCRs [29] = biological target: panel of 168 GPCRs (Homo sapiens, UniProt O00574); settings: GPCR CXCR6; agonist, 10 μM
panel of 168 GPCRs [30] = biological target: panel of 168 GPCRs (Homo sapiens, UniProt P30550); settings: GPCR GRPR; agonist, 10 μM
panel of 168 GPCRs [31] = biological target: panel of 168 GPCRs (Homo sapiens, UniProt Q9HC97); settings: GPCR GPR35; agonist, 10 μM

panel of 168 GPCRs (Homo sapiens, UniProt P30988), sequence (P30988 25-474 limits assumed): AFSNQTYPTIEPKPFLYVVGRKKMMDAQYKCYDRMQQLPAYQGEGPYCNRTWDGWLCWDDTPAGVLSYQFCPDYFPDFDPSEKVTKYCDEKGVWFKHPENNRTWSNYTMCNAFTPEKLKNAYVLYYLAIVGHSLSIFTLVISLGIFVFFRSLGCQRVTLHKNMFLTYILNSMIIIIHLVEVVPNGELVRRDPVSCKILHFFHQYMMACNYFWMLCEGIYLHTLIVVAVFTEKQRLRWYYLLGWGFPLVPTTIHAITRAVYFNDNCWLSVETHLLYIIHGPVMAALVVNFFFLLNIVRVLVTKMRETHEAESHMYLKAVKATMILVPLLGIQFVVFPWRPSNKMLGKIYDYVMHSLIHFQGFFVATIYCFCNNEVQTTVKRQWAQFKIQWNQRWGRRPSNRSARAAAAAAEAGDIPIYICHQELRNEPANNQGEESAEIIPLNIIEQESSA
panel of 168 GPCRs (Homo sapiens, UniProt Q03431), sequence (Q03431 27-593 limits assumed): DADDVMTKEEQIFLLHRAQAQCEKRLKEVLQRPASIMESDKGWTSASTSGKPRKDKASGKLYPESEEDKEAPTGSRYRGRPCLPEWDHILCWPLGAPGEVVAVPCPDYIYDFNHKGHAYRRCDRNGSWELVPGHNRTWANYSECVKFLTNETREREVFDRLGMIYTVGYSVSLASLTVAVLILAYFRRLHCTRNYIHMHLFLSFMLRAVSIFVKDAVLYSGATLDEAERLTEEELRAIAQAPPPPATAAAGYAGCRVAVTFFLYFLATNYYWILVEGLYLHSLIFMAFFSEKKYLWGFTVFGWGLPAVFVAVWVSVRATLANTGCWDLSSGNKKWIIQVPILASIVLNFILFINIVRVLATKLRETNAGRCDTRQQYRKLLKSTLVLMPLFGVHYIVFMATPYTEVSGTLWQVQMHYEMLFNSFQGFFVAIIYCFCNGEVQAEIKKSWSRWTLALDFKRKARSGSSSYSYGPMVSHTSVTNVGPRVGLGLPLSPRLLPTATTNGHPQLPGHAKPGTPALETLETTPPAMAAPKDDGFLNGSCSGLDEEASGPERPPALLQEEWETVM
panel of 168 GPCRs (Homo sapiens, UniProt P25101), sequence (P25101 21-427 limits assumed): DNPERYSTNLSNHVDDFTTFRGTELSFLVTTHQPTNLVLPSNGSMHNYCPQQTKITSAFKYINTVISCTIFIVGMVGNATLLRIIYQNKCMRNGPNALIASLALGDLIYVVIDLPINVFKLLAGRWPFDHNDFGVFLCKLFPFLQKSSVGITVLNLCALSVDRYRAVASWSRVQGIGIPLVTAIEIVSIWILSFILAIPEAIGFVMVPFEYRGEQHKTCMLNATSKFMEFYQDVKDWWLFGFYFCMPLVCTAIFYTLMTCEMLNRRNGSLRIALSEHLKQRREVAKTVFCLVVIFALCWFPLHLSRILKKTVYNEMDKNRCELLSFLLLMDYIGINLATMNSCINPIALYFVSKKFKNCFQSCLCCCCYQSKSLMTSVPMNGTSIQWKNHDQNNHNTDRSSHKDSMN

COc1ccc(OCCN2CCN(C(=O)c3cc4ccccc4[nH]3)CC2)cc1 [Compound 1, (1H-indol-2-yl)(4-(2-(4-methoxyphenoxy)ethyl)piperazin-1-yl)methanone]
β-Arrestin Recruitment activity (panel of 168 GPCRs [1]): 0%
β-Arrestin Recruitment activity (panel of 168 GPCRs [2]): 3%
β-Arrestin Recruitment activity (panel of 168 GPCRs [3]): −14%
β-Arrestin Recruitment activity (panel of 168 GPCRs [4]): 0%
β-Arrestin Recruitment activity (panel of 168 GPCRs [5]): 3%
β-Arrestin Recruitment activity (panel of 168 GPCRs [6]): 4%
β-Arrestin Recruitment activity (panel of 168 GPCRs [7]): 0%
β-Arrestin Recruitment activity (panel of 168 GPCRs [8]; GPCR CALCR RAMP2): 5%
β-Arrestin Recruitment activity (panel of 168 GPCRs [8]; GPCR CALCR RAMP3): 6%
β-Arrestin Recruitment activity (panel of 168 GPCRs [8]; GPCR CALCR): 0%
β-Arrestin Recruitment activity (panel of 168 GPCRs [9]): −3%
β-Arrestin Recruitment activity (panel of 168 GPCRs [10]): 4%
β-Arrestin Recruitment activity (panel of 168 GPCRs [11]): 8%
β-Arrestin Recruitment activity (panel of 168 GPCRs [12]): 6%
β-Arrestin Recruitment activity (panel of 168 GPCRs [13]): 12%
β-Arrestin Recruitment activity (panel of 168 GPCRs [14]): 5%
β-Arrestin Recruitment activity (panel of 168 GPCRs [15]): 0%
β-Arrestin Recruitment activity (panel of 168 GPCRs [16]): 4%
β-Arrestin Recruitment activity (panel of 168 GPCRs [17]): 0%
β-Arrestin Recruitment activity (panel of 168 GPCRs [18]): 17%
β-Arrestin Recruitment activity (panel of 168 GPCRs [19]): 0%
β-Arrestin Recruitment activity (panel of 168 GPCRs [20]): 37%
β-Arrestin Recruitment activity (panel of 168 GPCRs [21]): 3%
β-Arrestin Recruitment activity (panel of 168 GPCRs [22]): 0%
β-Arrestin Recruitment activity (panel of 168 GPCRs [23]): 4%
β-Arrestin Recruitment activity (panel of 168 GPCRs [24]): 0%
β-Arrestin Recruitment activity (panel of 168 GPCRs [25]): 16%
β-Arrestin Recruitment activity (panel of 168 GPCRs [26]): 0%
β-Arrestin Recruitment activity (panel of 168 GPCRs [27]): 0%
β-Arrestin Recruitment activity (panel of 168 GPCRs [28]): 0%
β-Arrestin Recruitment activity (panel of 168 GPCRs [29]): 8%
β-Arrestin Recruitment activity (panel of 168 GPCRs [30]): 0%
β-Arrestin Recruitment activity (panel of 168 GPCRs [31]): 6%
